Laboratory results as given in ChEMBL document CHEMBL3865844, “Synthesis of 3,5-dihydroxy-7,8-dimethoxy-2-(4-methoxyphenyl)benzopyran-4-one derivatives as anticancer agents” (Bioorg Med Chem Lett, 2016).
The source made the active and inactive calls. The rule behind the calls is not given here.

Tests used:
[1] = Anticancer activity against human ER-positive MCF7 cells measured after 48 hrs by SRB assay; format: functional, cell-based; conditions: MCF7, 48 h
[2] = Anticancer activity against human DU145 cells measured after 48 hrs by SRB assay; format: functional, cell-based; conditions: DU-145, 48 h
[3] = Cytotoxicity against human THP1 cells by MTT assay; format: toxicity, cell-based, THP-1
[4] = Anticancer activity against human A549 cells measured after 48 hrs by SRB assay; format: functional, cell-based; conditions: A549, 48 h
[5] = Anticancer activity against human DLD1 cells measured after 48 hrs by SRB assay; format: functional, cell-based; conditions: DLD-1, 48 h
[6] = Anticancer activity against human FADU cells measured after 48 hrs by SRB assay; format: functional, cell-based
[7] = Inhibition of tubulin depolymerization (unknown origin) measured up to 60 mins; parameters: species or system Homo sapiens
MCF7 = assay: Induction of apoptosis in human ER-positive MCF7 cells assessed as PARP cleavage at 2.5 to 10 uM by Western blot analysis; format: functional, cell-based; conditions: TDE = time-dependent effect
[8] = Cell cycle arrest in human ER-positive MCF7 cells assessed as accumulation at sub-G0 phase at 7.2 and 14.93 uM by propidium iodide staining based flow cytometry relative to vehicle control; format: functional; conditions: TDE = time-dependent effect
[9] = Cell cycle arrest in human ER-positive MCF7 cells assessed as decrease in S-phase cell population at 7.2 and 14.93 uM after 24 hrs by propidium iodide staining based flow cytometry relative to vehicle control; format: functional
[10] = Cell cycle arrest in human ER-positive MCF7 cells assessed as accumulation at G2M phase at 7.2 and 14.93 uM by propidium iodide staining based flow cytometry relative to vehicle control; format: functional; conditions: TDE = time-dependent effect

SMILES	IC50 [1] [µM]	IC50 [2] [µM]	CC50 [3] [µM]	IC50 [4] [µM]	IC50 [5] [µM]	IC50 [6] [µM]	EC50 [7] [µM]	Activity (MCF7)	Activity [8]	Activity [9]	Activity [10]
COc1ccc(-c2oc3c(OC)c(OC)cc(OCCN(C)C)c3c(=O)c2O)cc1	12.9	6.03	200	7.17	4.44	10.9					
CC(=O)O[C@H]1C(=O)[C@@]2(C)[C@H]([C@H](OC(=O)c3ccccc3)[C@]3(O)C[C@H](OC(=O)[C@H](O)[C@@H](NC(=O)c4ccccc4)c4ccccc4)C(C)=C1C3(C)C)[C@]1(OC(C)=O)CO[C@@H]1C[C@@H]2O [PACLITAXEL]							0.97				
COc1ccc(-c2oc3c(OC)c(OC)cc(OCCCC(=O)NCc4ccccn4)c3c(=O)c2O)cc1	> 40	> 40		> 40	> 40	> 40					
CCN(CC)CCOc1cc(OC)c(OC)c2oc(-c3ccc(OC)cc3)c(O)c(=O)c12	25.1	11.3	200	13.8	7.81	12.8					
CCCCCN(C)C(=O)CCCCCOc1cc(OC)c(OC)c2oc(-c3ccc(OC)cc3)c(O)c(=O)c12	34.9	22.5	200	17.2	19.4	> 40					
COc1ccc(-c2oc3c(OC)c(OC)cc(OC(C)CN(C)C)c3c(=O)c2O)cc1 (stereo unspecified)	7.2	4.38	100	6.12	2.56	5.41	25.1	Tde	Tde	Active	Tde
COc1ccc(-c2oc3c(OC)c(OC)cc(OCCN4CCCCC4)c3c(=O)c2O)cc1	11.9	6.55	100	10.3	4.56	9.96					
COc1ccc(-c2oc3c(OC)c(OC)cc(OCCCC(=O)N4CCN(C)CC4)c3c(=O)c2O)cc1	> 40	> 40		> 40	> 40	> 40					
COc1ccc(-c2oc3c(OC)c(OC)cc(OCCCCC(=O)NCCc4ccccn4)c3c(=O)c2O)cc1	> 40	> 40		> 40	> 40	> 40					
CCCCN(C)C(=O)CCCOc1cc(OC)c(OC)c2oc(-c3ccc(OC)cc3)c(O)c(=O)c12	> 40	> 40		> 40	> 40	> 40	3.4				
COc1ccc(-c2oc3c(OC)c(OC)cc(OCCCCCC(=O)N4CCN(C)CC4)c3c(=O)c2O)cc1	14.1	13.2	50	14.8	13.7	15.8	5.25				
CCCCN(C)C(=O)CCCCOc1cc(OC)c(OC)c2oc(-c3ccc(OC)cc3)c(O)c(=O)c12	22.3	10.8	200	16.7	17.4	22					
COc1ccc(-c2oc3c(OC)c(OC)cc(OCCCCCC(=O)NCCc4ccccn4)c3c(=O)c2O)cc1	> 40	> 40		> 40	> 40	> 40					
COc1ccc(-c2oc3c(OC)c(OC)cc(OCCCCC(=O)N4CCN(C)CC4)c3c(=O)c2O)cc1	> 40	> 40		> 40	> 40	> 40					
COc1ccc(-c2oc3c(OC)c(OC)cc(OCCCCCC(=O)NCc4ccccn4)c3c(=O)c2O)cc1	> 40	> 40		> 40	> 40	> 40					
COc1ccc(-c2oc3c(OC)c(OC)cc(OCCN4CCCC4)c3c(=O)c2O)cc1	14.9	7.07	100	11.1	17.4	9.79					
CC/C(=C(\c1ccccc1)c1ccc(OCCN(C)C)cc1)c1ccccc1 [TAMOXIFEN]	18.2	18.1		17.3	11.1	5.39					
COc1ccc(-c2oc3c(OC)c(OC)cc(OCCCCC(=O)NCc4ccccn4)c3c(=O)c2O)cc1	> 40	> 40		> 40	> 40	> 40					
COc1ccc(-c2oc3c(OC)c(OC)cc(OCCCC(=O)NCCc4ccccn4)c3c(=O)c2O)cc1	> 40	> 40		> 40	> 40	> 40					
